Measured values from ChEMBL document CHEMBL1124487, “Acid-sensitive latent inhibitors for proteolytic enzymes: synthesis and characterization” (J Med Chem, 1989).

Key:
Papain (Carica papaya) = biological target: T1, Papain (Carica papaya) (UniProt P00784)
T1 sequence (whole entry): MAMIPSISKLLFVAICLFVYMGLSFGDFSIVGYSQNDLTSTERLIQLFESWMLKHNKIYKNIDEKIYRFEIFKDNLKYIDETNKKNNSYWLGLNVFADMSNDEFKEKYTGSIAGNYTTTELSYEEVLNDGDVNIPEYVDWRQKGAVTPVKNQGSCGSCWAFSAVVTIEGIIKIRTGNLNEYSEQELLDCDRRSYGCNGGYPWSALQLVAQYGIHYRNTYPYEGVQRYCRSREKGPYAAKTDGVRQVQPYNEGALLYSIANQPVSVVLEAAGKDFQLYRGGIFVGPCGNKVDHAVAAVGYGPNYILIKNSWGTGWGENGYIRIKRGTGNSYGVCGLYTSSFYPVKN
Description: Initial rate of reaction between papain and BzArg p-nitro-anilide in the presence of 400 uM at pH 7

Papain [1] = biological target: T2, Papain (Carica papaya, UniProt P00784); assay: Inhibition of papain-catalyzed hydrolysis of BzArg p-nitroanilide by compound at pH 5.5
T2 sequence (P00784 whole entry): T1 sequence (whole entry)

Papain [2] = biological target: T2, Papain; assay: Inhibition of papain-catalyzed hydrolysis of BzArg p-nitroanilide by compound at pH 5
Papain [3] = biological target: T2, Papain; assay: Inhibition of papain-catalyzed hydrolysis of BzArg p-nitroanilide by compound at pH 7

Kix (Papain (Carica papaya)): 1 mM | Ki (Papain [1]): 25 µM | Ki (Papain [2]): 38 µM | Ki (Papain [3]): 30 µM
Structure (SMILES): CC(=O)N[C@@H](C)C(=O)N/N=C/CNC(=O)c1ccccc1
